Reference: ChEMBL document CHEMBL1133798, “Potent and selective bicyclic lactam inhibitors of thrombin. Part 4: transition state inhibitors” (Bioorg Med Chem Lett, 2001)

Experiments:
Rattus norvegicus [1] = species: Rattus norvegicus; test: Mean occulation time was measured in rat arterial thrombosis model; assay type: functional
[2] = Oral bioavailability in rat (dose 30 mg/kg); assay type: ADME, organism-based; conditions: in vivo
Rattus norvegicus [3] = species: Rattus norvegicus; test: Thrombin time was measured in rat arterial thrombosis model; assay type: functional
Prothrombin = Prothrombin (Homo sapiens, UniProt P00734); test: In vitro activity against human alpha thrombin was determined
Rattus norvegicus [4] = species: Rattus norvegicus; test: Activated partial thromboplastin time was measured in rat arterial thrombosis model; assay type: functional
Serine protease 1 = Serine protease 1 (Homo sapiens, UniProt P07477); test: In vitro activity against human alpha trypsin was determined
Serine protease 1, sequence (P07477 whole entry): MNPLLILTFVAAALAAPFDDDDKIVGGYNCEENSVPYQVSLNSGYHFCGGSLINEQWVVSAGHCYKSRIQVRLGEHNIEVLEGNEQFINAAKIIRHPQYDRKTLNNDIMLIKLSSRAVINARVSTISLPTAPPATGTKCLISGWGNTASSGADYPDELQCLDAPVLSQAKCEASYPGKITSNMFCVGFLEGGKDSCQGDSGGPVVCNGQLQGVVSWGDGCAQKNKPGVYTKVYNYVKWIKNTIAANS

Compound | bioavailability [2] | Ki (Prothrombin) | Ki (Serine protease 1) | IC50 (Serine protease 1) | IC50 (Prothrombin) | MOT (Rattus norvegicus [1]) | TT (Rattus norvegicus [3]) | APTT (Rattus norvegicus [4])
N[C@H]1CC[C@H](C(NC(=O)[C@@H]2CC[C@H]3CN(S(=O)(=O)Cc4ccccc4)CC(=O)N32)C(=O)c2nnnn2CC(=O)O)CC1 (some centres undefined) | – | – | > 400000 nM | – | – | – | – | –
N[C@H]1CC[C@H](C(NC(=O)[C@@H]2CC[C@H]3CN(S(=O)(=O)Cc4ccccc4)CC(=O)N32)C(=O)C(=O)NCC(=O)O)CC1 (some centres undefined) | – | 2.14 nM | 29000 nM | – | – | – | – | –
Cn1nnnc1C(=O)C(NC(=O)[C@@H]1CC[C@H]2CN(S(=O)(=O)Cc3ccccc3)CC(=O)N21)[C@H]1CC[C@H](N)CC1 (some centres undefined) | – | 5 nM | 35000 nM | – | – | 46 min | 322 s | 46 s
Cc1nc(C(=O)C(NC(=O)[C@@H]2CC[C@H]3CN(S(=O)(=O)Cc4ccccc4)CC(=O)N32)[C@H]2CC[C@H](N)CC2)sc1C(=O)O (some centres undefined) | 0.4% | 80 nM | 65000 nM | – | – | 16 min | 99 s | 20 s
N[C@H]1CC[C@H](C(NC(=O)[C@@H]2CC[C@H]3CN(S(=O)(=O)Cc4ccccc4)CC(=O)N32)C(=O)c2nc3ccccc3s2)CC1 (some centres undefined) | 0.6% | 0.72 nM | 1400 nM | – | – | >60 min | 339 s | 25 s
N[C@H]1CC[C@H](C(NC(=O)[C@@H]2CC[C@H]3CN(S(=O)(=O)Cc4ccccc4)CC(=O)N32)C(=O)c2nccs2)CC1 (some centres undefined) | 1.8% | 3.2 nM | 8000 nM | – | – | > 60 min | 829 s | 66 s

Continued, in another order:

bioavailability [2] | Ki (Prothrombin) | Ki (Serine protease 1) | IC50 (Serine protease 1) | IC50 (Prothrombin) | Compound | MOT (Rattus norvegicus [1]) | TT (Rattus norvegicus [3]) | APTT (Rattus norvegicus [4])
1.1% | 0.13 nM | – | – | – | COC(=O)C(=O)C(NC(=O)[C@@H]1CC[C@H]2CN(S(=O)(=O)Cc3ccccc3)CC(=O)N21)[C@H]1CC[C@H](N)CC1 (some centres undefined) | >60 min | 999 s | 46 s
0.4% | 0.09 nM | 2200 nM | – | – | N[C@H]1CC[C@H](C(NC(=O)[C@@H]2CC[C@H]3CN(S(=O)(=O)Cc4ccccc4)CC(=O)N32)C(=O)C(=O)O)CC1 (some centres undefined) | >60 min | 938 s | 54 s
0.3% | 0.26 nM | 150 nM | – | – | CCSC(=O)C(=O)C(NC(=O)[C@@H]1CC[C@H]2CN(S(=O)(=O)Cc3ccccc3)CC(=O)N21)[C@H]1CC[C@H](N)CC1 (some centres undefined) | 49 min | 999 s | 33 s
– | 0.33 nM | 2400 nM | – | – | CNC(=O)C(=O)C(NC(=O)[C@@H]1CC[C@H]2CN(S(=O)(=O)Cc3ccccc3)CC(=O)N21)[C@H]1CC[C@H](N)CC1 (some centres undefined) | 20 min | 999 s | 47 s
0.7% | – | – | 550 nM | 0.1 nM | CCCCOC(=O)C(=O)C(NC(=O)[C@@H]1CC[C@H]2CN(S(=O)(=O)Cc3ccccc3)CC(=O)N21)[C@H]1CC[C@H](N)CC1 (some centres undefined) | 47 min | 883 s | 53 s
